From US20230103631A1, “PEPTIDES AS SELECTIVE GIP RECEPTOR AGONISTS” (Sanofi, priority 2020, published 2023)
*1 amine or outer side, *2 acyl side, *3 side chain or, on linkers, in order; H or OH if unused. Where a SMILES comes first, the peptide text is derived from it. Side-chain parts run from the residue outwards. [ ]: non-standard residue; d: D form. The star is where a group is joined. C18 diacid = O=C(O)CCCCCCCCCCCCCCCCC(=O)*; γGlu = O=C(O)[C@H](CCC(=O)[*:2])N[*:1]; AEEA = NCCOCCOCC(=O)O; Aib = CC(C)(N)C(=O)O

Experiments:
[1] = Pharmacokinetic evaluation in rats; format: in vivo; conditions: male, SD, rat, plasma
Experimental: Compounds were administered in a suitable buffer system, e.g. PBS buffer solution at pH7.4 or DPBS solution at concentrations of 0.05, 0.1, 0.5 or 1 mg/ml depending on dose, species and administration volume.
Male SD rats were dosed 0.25 mg/kg, 0.5 mg/kg or 1 mg/kg intravenously (i.v.) or subcutaneously (s.c.). Blood samples were collected after 0.08, 0.25, 0.5, 1, 2, 4, 8, 24, 32, and 48 h post i.v. application and 0.25, 0.5, 1, 2, 4, 8, 24, 32, and 48 h post s.c. application, respectively. Plasma samples were analyzed after protein precipitation via liquid chromatography mass spectrometry (LC/MS). PK parameters and half-life were calculated using Phoenix-WinNonlin 8.1 using a non-compartmental model and linear trapezoidal interpolation calculation.
Pharmacokinetic profiles were determined as described in Methods.

[2] = Dynamic light scattering (DLS) for the assessment of physical stability; format: physicochemical; conditions: DLS buffer system A
Excerpt: A monochromatic and coherent light beam (laser) is used to illuminate the liquid sample. Dynamic Light Scattering (DLS) measures light scattered from particles (1 nm≤radius≤1 μm) that undergo Brownian motion. This motion is induced by collisions between the particles and solvent molecules, that themselves are moving due to their thermal energy. The diffusional motion of the particles results in temporal fluctuations of the scattered light (R. Pecora, Dynamic Light Scattering: Applications of Photon Correlation Spectroscopy, Plenum Press, 1985).
The scattered light intensity fluctuations are recorded and transformed into an autocorrelation function. By fitting the autocorrelation curve to an exponential function, the diffusion coefficient D of the particles in solution can be derived. The diffusion coefficient is then used to calculate the hydrodynamic radius Rh (or apparent Stokes radius) through the Stokes-Einstein equation assuming spherical particles. This calculation is defined in ISO 13321 and ISO 22412 (International Standard ISO13321 Methods for Determination of Particle Size Distribution Part 8: Photon Correlation Spectroscopy, International Organisation for Standardisation (ISO) 1996; International Standard ISO22412 Particle Size Analysis—Dynamic Light Scattering, International Organisation for Standardisation, 2008).
In case of polydisperse samples, the autocorrelation function is the sum of the exponential decays corresponding to each of the species. The temporal fluctuations of the scattered light can then be used to determine the size distribution profile of the particle fraction or family. The first order result is an intensity distribution of scattered light as a function of the particle size. The intensity distribution is naturally weighted according to the scattering intensity of each particle fraction or family. For biological materials or polymers, the particle scattering intensity is proportional to the square of the molecular weight. Thus, small amount of aggregates/agglomerates or presence or a larger particle species can dominate the intensity distribution. However, this distribution can be used as a sensitive detector for the presence of large material in the sample.
The DLS technique produces distributions with inherent peak broadening. The polydispersity index % Pd is a measure of the width of the particle size distribution and is calculated by standard methods described in ISO13321 and ISO22412 [International Standard ISO13321 Methods for Determination of Particle Size Distribution Part 8: Photon Correlation Spectroscopy, International Organisation for Standardisation (ISO) 1996; International Standard ISO22412 Particle Size Analysis—Dynamic Light Scattering, International Organisation for Standardisation (ISO) 2008].
Solutions from solid samples were prepared in buffer systems (see below) with a target concentration of 300 μM compound based on the previously determined % purity.
DLS buffer system A) 20 mM phosphate buffer pH 7.4
DLS buffer system B) 8 mM phosphate buffer pH 7.4, 14 mg/ml propylene glycol, 5.5 mg/ml phenol
DLS buffer system C) 100 mM phosphate buffer pH 7.4, 2.7 mg/ml m-cresol Solutions were filtered through 0.22 μm pore size and filled into sterilized glass containers under laminar flow conditions. For every peptide solution, the apparent hydrodynamic radius (Rh), the corresponding Scattering Intensity (I), and the Mass Contribution (M) were determined as an average over 3-6 replicates from the intensity distribution of the scattered light averaging only high-quality measurements. Relative standard deviations (RSD) for these parameters were calculated from the same number of replicates. […]

[3] = ThT assay for the assessment of physical stability; format: physicochemical; conditions: ThT buffer system A: 100 mM phosphate buffer pH 7.4; 3 mg/ml, 37° C.
Excerpt: Low physical stability of a peptide solution may lead to amyloid fibril formation, which is observed as well-ordered, thread-like macromolecular structures in the sample, which eventually may lead to gel formation. Thioflavin T (ThT) is widely used to visualize and quantify the presence of misfolded protein aggregates [Biancalana et al., Biochim. Biophys. Acta 2010, 1804(7), 1405]. […] Enzymol. 1999, 309, 274]. The time course for fibril formation often follows the characteristic shape of a sigmoidal curve and can be separated into three regions: a lag phase, a fast growth phase, and a plateau phase.
The typical fibril formation process starts with the lag phase in which the amount of partially folded peptide turned into fibrils is not significant enough to be detected. The lag-time corresponds to the time the critical mass of the nucleus is built. Afterwards, a drastic elongation phase follows, and fibril concentration increases rapidly.
Investigations were carried out to determine fibrillation tendencies under stress conditions by shaking at 37° C. within Fluoroskan Ascent FL or Fluoroskan Ascent.
For the tests in Fluoroskan Ascent (FL), 200 μl sample were placed into a 96-well mictrotiter plate PS, flat bottom, Greiner Fluotrac No. 655076. Plates were sealed with Scotch Tape (Qiagen). Samples were stressed by continuous cycles of 10 sec shaking at 960 rpm and 50 sec rest period at 37° C. The kinetic was monitored by measuring fluorescence intensity every 20 min.
Peptides were diluted in a buffer system to a final concentration of 3 mg/ml. 20 μl of a 10.1 mM ThT solution in H2O were added to 2 ml of peptide solution to receive a final concentration of 100 μM ThT. For each sample eight replicates were tested.
ThT buffer system A) 100 mM phosphate buffer pH 7.4
ThT buffer system B) 100 mM phosphate buffer pH 7.4, 2.7 mg/ml m-cresol
Lag time in hours (h) in Thioflavin T (ThT) assay of peptide samples was determined in ThT buffer system A as described in Methods.

Question: What does the source list for `CC[C@H](C)[C@H](NC(=O)[C@H](CCCNC(=N)N)NC(=O)[C@H](CC(=O)O)NC(=O)[C@H](CCCCNC(=O)COCCOCCNC(=O)COCCOCCNC(=O)CC[C@H](NC(=O)CCCCCCCCCCCCCCCCC(=O)O)C(=O)O)NC(=O)C(C)(C)NC(=O)[C@@H](NC(=O)[C@H](CO)NC(=O)[C@H](CC(C)C)NC(=O)[C@H](CC(=O)O)NC(=O)[C@H](CO)NC(=O)[C@@H](NC(=O)[C@H](Cc1ccccc1)NC(=O)[C@@H](NC(=O)CNC(=O)[C@H](CCC(=O)O)NC(=O)C(C)(C)NC(=O)[C@@H](N)Cc1ccc(O)cc1)[C@@H](C)O)[C@@H](C)CC)[C@@H](C)CC)C(=O)N[C@@H](Cc1c[nH]cn1)C(=O)N[C@@H](CCC(N)=O)C(=O)NC(C)(C)C(=O)N[C@@H](CCC(=O)O)C(=O)N[C@@H](Cc1ccccc1)C(=O)N[C@H](C(=O)N[C@@H](CCC(=O)O)C(=O)N[C@@H](Cc1c[nH]c2ccccc12)C(=O)N[C@@H](CC(C)C)C(=O)N[C@@H](CC(C)C)C(=O)N[C@@H](C)C(=O)N[C@@H](CCC(N)=O)C(=O)NCC(=O)N1CCC[C@H]1C(=O)N[C@@H](CO)C(=O)N[C@@H](CO)C(=O)NCC(=O)N[C@@H](C)C(=O)N1CCC[C@H]1C(=O)N1CCC[C@H]1C(=O)N1CCC[C@H]1C(=O)N[C@@H](CO)C(N)=O)[C@@H](C)CC` [SEQ ID NO: 4, H2N-Y-Aib-E-G-T-F-I-S-D-I-S-I-Aib-K[{AEEA}2-gGlu-C18OH]-D-R-I-H-Q-Aib-E-F-I-E-W-I-L-A-Q-G-P-S-S-G-A-P-P-P-S-NH2] (H-Y[Aib]EGTFISDLSI[Aib]K([AEEA-AEEA-γGlu-C18 diacid])DRIHQ[Aib]EFIEWLLAQGPSSGAPPPS-NH2)?
Answer: AUC(0-t) ([1]; iv, 0.25 mg/kg i.v.): 50200 ng·h/mL; Cmax ([1]; iv, 0.25 mg/kg i.v.): 6890 ng/mL; half-life ([1]; iv, 0.25 mg/kg i.v.): 12.3 h; clearance ([1]; iv, 0.25 mg/kg i.v., read-out: CI (converted)): 4.68 mL/h/kg; AUC(0-t) ([1]; sc, 0.5 mg/kg s.c.): 44400 ng·h/mL; Cmax ([1]; sc, 0.5 mg/kg s.c.): 1270 ng/mL; bioavailability ([1]; sc, 0.5 mg/kg s.c.): 52%; half-life ([1]; sc, 0.5 mg/kg s.c.): 16.5 h; I and SD (Scattering Intensity) ([2]; 0 weeks): 93 ± 1%; M and SD (Mass Contribution) ([2]; 0 weeks): 100 ± 0%; apparent Rh and SD ([2]; 0 weeks): 1.91 ± 0.05 nm; I and SD (Scattering Intensity) ([2]; 4 weeks storage at 40° C.): 93 ± 1%; M and SD (Mass Contribution) ([2]; 4 weeks storage at 40° C.): 100 ± 0%; apparent Rh and SD ([2]; 4 weeks storage at 40° C.): 1.9 ± 0.04 nm; Increase in FI [3]: no; Lag time before increase [3]: >45 h
